How the values were obtained:
Format in all cases: cell-based
[1] = system: HeLa cells; assay: subG1 (hypodiploid) fraction by flow cytometry, HeLa cells
Protocol: (§1) Trypsinized cells were resuspended in PBS at 10^6 cells/ml. Cells were then fixed by addition of ice-cold 70% ethanol. Ethanol-fixed cells were kept overnight at 4° C. before staining. Cells were pelleted and washed twice with PBS. Cell pellets were incubated for an hour at room temperature with mouse anti-MPM-2 antibody (Millipore, Mass., USA), followed by 1 h incubation with Alexa-488 anti-mouse secondary antibody (Life Technologies, NY, USA). Finally cells were washed, pelleted and resuspended in propidium iodide-containing isotonic buffer (0.1 mg/mL) and 0.5% Triton X-100. Cell cycle distribution was determined by flow cytometry using an LSR Fortessa Flow cytometer (BD Biosciences, CA, USA) and analyzed using Flowjo software (Tree Star, OR, USA). […] The duration, highest degree, and rapidity of onset of MA varied between drugs, drug concentrations, and cell lines (FIGS. 2A, 2B). In general, the maximum MA achieved was less pronounced in Nos- and PJ-treated cells (FIGS. 2A, 2B). Drug-induced onset of MA was corroborated by substantial increases in cyclin B1 levels in all cell lines (FIG. 2C). […] Instances where the subG1 fraction was elevated without cleaved caspase-3 may either represent caspase-independent cell death or the presence of hypodiploid cells whose fate is unclear.

[2] = system: HDFs and MCF10A cells; assay: Spindle multipolarity (MP) in non-malignant cell lines
[3] = system: adult human dermal fibroblasts (HDF); assay: subG1 (hypodiploid) fraction by flow cytometry, HDFs
[4] = system: human dermal fibroblasts (HDFs); assay: Centrosome amplification (CA) by microscopy, HDFs; details: for change of CA over controls (in words): any concentration or time point assessed
Protocol: (§2) Consequently, CA was assessed in cultures treated with different concentrations of declustering drugs for 6, 12, 18, or 24 h and untreated controls via microscopy. Centrosomes were identified by γ-tubulin and centrin-2 colocalization at discrete foci. […] The peak percent CA detected over 24 h is shown in FIG. 6 (only statistically significant (P<0.05) increases over control values are represented in the Figures). Representative confocal micrographs of CA in interphase and mitotic cells, both control and drug treated, are depicted in FIG. 7. No significant correlations between the degree of CA (FIG. 5A) and the expression levels of PLK4, Cyclin E, and Aurora A were found (FIG. 4).
(§3) To determine whether the CA-inducing activity of declustering drugs is restricted to cancer cells, two non-malignant cell lines, mammary fibrocystic (MCF10A) cells and adult human dermal fibroblasts were treated with these drugs. Neither one of RBN, GF or PJ induced CA or cell death (Table 8) in these cell lines. […] In comparison, 10 and 25 μM RBN increased peak CA over controls in interphase cells (p<0.001 and p=0.001, respectively), with the lower concentration dramatically augmenting peak CA to 56% of cells versus 15% for the higher dose (FIG. 9B). Only 10 but not 25 μM RBN increased the extent of CA in mitotic cells, and this upregulation was only slight (10%, p=0.041).

[5] = system: MDA-MB-231 (231) cells; assay: subG1 (hypodiploid) fraction by flow cytometry, 231 cells
Protocol: as §1

[6] = system: MCF10A cells; assay: Centrosome amplification (CA) by microscopy, MCF10A cells; details: for change of CA over control levels (in words): interphase and mitotic cells, over 24 h
Protocol: as §2, §3

[7] = system: mammary fibrocystic (MCF10A) cells; assay: subG1 (hypodiploid) fraction by flow cytometry, MCF10A cells; details: for change of peak subG1 percent compared to controls (in words): MCF10A cells; for Peak subG1 percent over 48 h: MCF10A
[8] = system: PC3 cells; assay: subG1 (hypodiploid) fraction by flow cytometry, PC3 cells
Protocol: as §1

[9] = system: 231 cells; assay: Centrosome amplification (CA) by microscopy, 231 cells; details: 25 μM
Protocol: (§4) Consequently, CA was assessed in cultures treated with different concentrations of declustering drugs for 6, 12, 18, or 24 h and untreated controls via microscopy. […] The peak percent CA detected over 24 h is shown in FIG. 6 (only statistically significant (P<0.05) increases over control values are represented in the Figures). Representative confocal micrographs of CA in interphase and mitotic cells, both control and drug treated, are depicted in FIG. 7. […] To better understand the “potency” of drug-induced CA with time, the average fold change in CA over controls over 24 h was assessed (FIG. 5A), whereby the extent of CA across time points (i.e., 6, 12, 18, and 24 h) was averaged and then divided by the extent of CA in control (i.e., 0 h). […] For Nos and BN, there was no major difference in CA levels in interphase versus mitotic cells.

[10] = system: MDA-MB-231 (231), PC3, and HeLa cells; assay: Mitotic arrest (MA) by flow cytometry (MPM2/PI), across cell lines; details: coarse-grained categories
Protocol: Trypsinized cells were resuspended in PBS at 10^6 cells/ml. Cells were then fixed by addition of ice-cold 70% ethanol. Ethanol-fixed cells were kept overnight at 4° C. before staining. Cells were pelleted and washed twice with PBS. Cell pellets were incubated for an hour at room temperature with mouse anti-MPM-2 antibody (Millipore, Mass., USA), followed by 1 h incubation with Alexa-488 anti-mouse secondary antibody (Life Technologies, NY, USA). Finally cells were washed, pelleted and resuspended in propidium iodide-containing isotonic buffer (0.1 mg/mL) and 0.5% Triton X-100. Cell cycle distribution was determined by flow cytometry using an LSR Fortessa Flow cytometer (BD Biosciences, CA, USA) and analyzed using Flowjo software (Tree Star, OR, USA).
To evaluate the impact of putative declustering drugs on cell cycle progression and hypodiploidy (<2N DNA content, which may indicate apoptotic cells), MDA-MB-231 (231), PC3, and HeLa cells were treated with different concentrations of declustering drugs, stained with propidium iodide, labeled with anti-MPM2 antibody, and then assessed by flow cytometry at multiple time points over 48 h. […] The duration, highest degree, and rapidity of onset of MA varied between drugs, drug concentrations, and cell lines (FIGS. 2A, 2B). In general, the maximum MA achieved was less pronounced in Nos- and PJ-treated cells (FIGS. 2A, 2B). […]

[11] = system: HeLa cells; assay: Centrosome amplification (CA) by microscopy, HeLa cells; details: interphase, 25 μM
Protocol: as §4

Row | SMILES | Peak subG1 percent over 48 h ([1]; 25 μM) [%] | induction of MP over control levels [2] | Peak subG1 percent over 48 h ([3]; 25 μM) [%] | Peak subG1 percent over 48 h ([5]; 25 μM) [%] | maximum subG1 fraction relative to control ([5]; 25 μM) [× control] | change of peak subG1 percent compared to controls (in words) [7] | Peak subG1 percent over 48 h ([7]; 25 μM) [%] | Peak subG1 percent over 48 h ([8]; 25 μM) [%] | Peak subG1 percent over 48 h ([1]; 10 μM) [%] | Peak subG1 percent over 48 h ([3]; 10 μM) [%] | change of CA over controls (in words) [4] | Peak subG1 percent over 48 h ([5]; 10 μM) [%] | change of CA over control levels (in words) [6] | Peak subG1 percent over 48 h ([7]; 10 μM) [%] | Peak subG1 percent over 48 h ([8]; 10 μM) [%] | further results
1 | COC1=CC(=O)C[C@@H](C)[C@]12Oc1c(Cl)c(OC)cc(OC)c1C2=O [GF, griseofulvin] | 59.5 | significantly induce MP over control levels | 32.9 | 62.0 | 6.4 | did increase peak SubG1 in MCF10A cells compared to controls | 22.7 | 33.7 |  |  |  |  |  |  |  | Peak subG1 percent over 48 h ([1]; 50 μM): 79.0%; maximum subG1 fraction relative to control ([1]; 50 μM): 4.3 × control; Peak subG1 percent over 48 h ([3]; 50 μM): 38.3%; peak CA in interphase cells ([4]; interphase, 25 and 50 μM): 14-15%; Peak subG1 percent over 48 h ([5]; 50 μM): 60.0%; peak interphase CA ([6]; interphase, 25 and 50 μM): 13-16%; change of CA in mitotic cells (in words) ([6]; mitotic, 25 and 50 μM): no increase was observed in mitotic cells; Peak subG1 percent over 48 h ([7]; 50 μM): 35.1%; Peak subG1 percent over 48 h ([8]; 50 μM): 39.5%; maximum subG1 fraction relative to control ([8]; 50 μM): 16.3 × control
2 | COc1ccc2c(c1OC)C(=O)O[C@@H]2[C@H]1c2c(cc3c(c2OC)OCO3)CCN1C [Nos, noscapine] | 50.1 |  | 11.2 | 43.9 |  | did not cause a significant increase in peak subG1 percent compared to controls | 4.2 | 32.7 | 25.0 | 14.8 | did not significantly increase the extent of CA over controls | 26.3 | neither concentrations of Nos or BN significantly increased CA over control levels | 4.1 | 29.9 | induction of significant CA [9]: failed to induce significant CA
3 | CN(C)CC(=O)Nc1ccc2[nH]c(=O)c3ccccc3c2c1 [PJ, PJ-34] | 64.4 | significantly induce MP over control levels | 28.2 | 55.0 | 10.4 | did not cause a significant increase in peak subG1 percent compared to controls | 9.1 | 48.4 | 48.5 | 13.6 | no significant impact on CA in HDFs | 37.0 | increased the peak extent of CA in interphase and mitotic cells | 6.9 | 62.4 | mean time to peak MA (MA:TRH) [10]: ~12 h; fold increase in peak CA extent, interphase cells [11]: ~20 fold; peak / final extent of CA in interphase cells [11]: < 20%; maximum subG1 fraction relative to control ([1]; 10 μM): 4.8 × control; peak extent of CA in interphase cells ([6]; interphase, 10 μM): 8%; maximum subG1 fraction relative to control ([8]; 25 μM): 7.9 × control

— patent publication US20150309031A2, “COMPOSITIONS AND METHODS FOR PROGNOSIS AND TREATMENT OF CANCER” (NOVAZOI THERANOSTICS, priority 2013, published 2015)
